This passage reports IC50 results from article PMC8487611 (ACS chemical neuroscience, 2021).

The experiment concerns the target α3β4 nicotinic acetylcholine receptor (mouse) (Mus musculus, UniProt Q8R493+Q8R4G9). Briefly: two-electrode voltage clamp of Xenopus oocytes, block of ACh. The format is cell-based. (Two-electrode voltage clamp is typically applied to oocytes expressing channels or transporters.)

Chain of α3β4 nicotinic acetylcholine receptor (mouse) (Q8R4G9 26-499): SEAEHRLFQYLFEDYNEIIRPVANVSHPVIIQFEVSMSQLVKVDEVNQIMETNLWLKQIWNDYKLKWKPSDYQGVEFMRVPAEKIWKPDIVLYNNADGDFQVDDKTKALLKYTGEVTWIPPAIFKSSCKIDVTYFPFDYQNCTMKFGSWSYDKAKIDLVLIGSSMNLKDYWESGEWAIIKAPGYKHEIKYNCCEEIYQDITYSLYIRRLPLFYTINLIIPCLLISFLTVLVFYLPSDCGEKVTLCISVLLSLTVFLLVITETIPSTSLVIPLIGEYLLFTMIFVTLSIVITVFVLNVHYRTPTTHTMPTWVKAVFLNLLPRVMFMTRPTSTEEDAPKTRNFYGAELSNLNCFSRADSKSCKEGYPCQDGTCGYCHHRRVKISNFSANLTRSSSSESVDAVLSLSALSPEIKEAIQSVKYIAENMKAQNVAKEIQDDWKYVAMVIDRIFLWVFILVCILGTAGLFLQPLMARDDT
Chain of α3β4 nicotinic acetylcholine receptor (mouse) (Q8R493 21-495): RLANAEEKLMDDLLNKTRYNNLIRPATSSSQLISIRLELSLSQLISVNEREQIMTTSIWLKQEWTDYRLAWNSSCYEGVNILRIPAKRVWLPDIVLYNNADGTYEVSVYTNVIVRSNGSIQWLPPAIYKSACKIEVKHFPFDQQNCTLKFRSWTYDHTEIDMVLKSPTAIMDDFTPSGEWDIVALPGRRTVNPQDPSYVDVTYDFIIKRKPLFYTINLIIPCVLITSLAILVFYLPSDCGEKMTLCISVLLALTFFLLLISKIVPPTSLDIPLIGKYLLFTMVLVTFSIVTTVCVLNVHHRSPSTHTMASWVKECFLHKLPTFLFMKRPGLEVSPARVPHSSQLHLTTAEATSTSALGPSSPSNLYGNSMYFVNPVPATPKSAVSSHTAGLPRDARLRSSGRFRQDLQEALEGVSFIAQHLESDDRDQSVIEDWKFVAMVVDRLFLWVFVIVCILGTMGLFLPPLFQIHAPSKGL

The term IC50 denotes the point on the concentration scale where inhibition reaches its midpoint. A low value points to greater potency. Take molleamine C [compound 3]: the IC50 was 1.43 µM.
